Test results from PubChem BioAssay AID687005 (Broad Institute, 2013).
Inconclusive results are not listed. Active and inactive are the calls of the source.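 The calls were made as follows: active = Compounds that reduce signal, with fitted half-maximal dose at or under twice the top valid tested dose; inconclusive = Poor fit, or flat curve losing 30 to 70% of signal; inactive = Potency past limit, flat within 30%, or opposite direction.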

Assay: HEK293T cell cytotoxicity, dose response, cytotoxicity control, ATP luminescence, cherry-pick samples (AID 687005)
Details: HEK293T viability, ATP luminescence (CellTiter-Glo), 48 h; at 23.5 µM (top of the series)

SMILES	activity change, negative = cytotoxicity
COc1ccc(CN(C)C[C@@H]2Oc3ccc(NS(C)(=O)=O)cc3CC(=O)N([C@H](C)CO)C[C@H]2C)cc1	1.11% (inactive)
COc1ccc(CN(C)C[C@@H]2Oc3ccc(NC(=O)C4CC4)cc3C(=O)N([C@@H](C)CO)C[C@H]2C)cc1	8.64% (inactive)
CO[C@@H]1CN(C)C(=O)c2cc(NC(=O)C3CCOCC3)ccc2OC[C@H](C)NC[C@@H]1C	-2.94% (inactive)
C[C@H]1CN([C@@H](C)CO)C(=O)c2cc(NC(=O)Nc3ccc4c(c3)OCO4)ccc2O[C@@H]1CN(C)CC1CCCCC1	-55.7% (inactive)
C[C@@H]1CN([C@H](C)CO)C(=O)c2cc(NC(=O)Nc3cccc4ccccc34)ccc2O[C@H]1CN(C)C(=O)Nc1ccc(C(F)(F)F)cc1	-31% (inactive)
CCCNC(=O)C[C@@H]1CC[C@@H]2[C@@H](COc3ccc(NC(=O)CCC)cc3C(=O)N2C)O1	9.04% (inactive)

Same assay, conditions: HEK293T viability, ATP luminescence (CellTiter-Glo), 48 h; at 26 µM (top of the series)

SMILES	activity change, negative = cytotoxicity
CCS(=O)(=O)N1CCCCN2[C@H](CO)[C@@H](c3ccc(-c4ccc(C#N)cc4)cc3)[C@@H]2C1	2.55% (inactive)
C[C@@H]1CN([C@H](C)CO)S(=O)(=O)c2ccc(C#C[C@@H](C)O)cc2O[C@@H]1CN(C)Cc1ccncc1	-20.8% (inactive)
C[C@H]1CN([C@@H](C)CO)C(=O)CCCn2nncc2CO[C@H]1CN(C)C(=O)Oc1cccc2ccccc12	-6.41% (inactive)
CCC(C(=O)Nc1c(C)cc(C)cc1C)N1CCCCCC1 (configuration not stated)	18.8% (inactive)
COc1ccc(OC(C)C(=O)NC(C)c2ccccc2)cc1 (configuration not stated)	-8.71% (inactive)
COc1ccccc1-c1ccc2c(c1)O[C@@H](CN(C)C(=O)c1cccnc1)[C@H](C)CN([C@@H](C)CO)S2(=O)=O	-38% (inactive)
Cc1cccc(NC(=O)C2NC(=O)CC2c2ccccc2)c1C (configuration not stated)	8.03% (inactive)
C[C@H](CO)N1C[C@H](C)[C@@H](CN(C)Cc2ccc(-c3ccccc3)cc2)Oc2ccc(NC(=O)Nc3ccc(C(F)(F)F)cc3)cc2C1=O	-3.25% (inactive)
C[C@H]1CN([C@@H](C)CO)C(=O)c2cccc(NS(C)(=O)=O)c2O[C@@H]1CN(C)Cc1ccc(-c2ccccc2)cc1	-8.66% (inactive)
Cc1noc(C)c1S(=O)(=O)N(C)C[C@H]1OCCCC[C@@H](C)Oc2ccc(NC(=O)CCCCCC(=O)Nc3ccccc3N)cc2C(=O)N([C@@H](C)CO)C[C@@H]1C	-1.73% (inactive)
O=C(C[C@@H]1CC[C@H](NC(=O)Cc2ccccn2)[C@H](CO)O1)NCCc1ccccc1	-2.62% (inactive)
COc1ccc(C#Cc2ccc3c(c2)O[C@H](CN(C)C(C)=O)[C@@H](C)CN([C@@H](C)CO)S3(=O)=O)cc1	-74% (inactive)
CO[C@H](CN(C)Cc1cc(F)ccc1F)[C@@H](C)CN([C@@H](C)CO)S(=O)(=O)c1ccc(F)cc1	14.8% (inactive)
COc1ccc(CN(C)C[C@@H]2OCCCC[C@H](C)Oc3ccc(N(C)C)cc3C(=O)N([C@H](C)CO)C[C@@H]2C)cc1	12.7% (inactive)
CC(C)NC(=O)N(C)C[C@H]1OCCCC[C@H](C)Oc2ccc(NC(=O)c3ccccc3)cc2C(=O)N([C@@H](C)CO)C[C@@H]1C	55.3% (inactive)
CC(C)NC(=O)Nc1cccc2c1O[C@H](CN(C)C)[C@H](C)CN([C@@H](C)CO)C2=O	22% (inactive)
CN1C(=O)c2cc(NS(C)(=O)=O)ccc2OC[C@@H]2O[C@@H](CC(=O)O)CC[C@H]21	4.2% (inactive)
CC=Cc1ccc2n(c1=O)C[C@@H]1[C@@H](CO)[C@H](C(=O)N3CCCCC3)N(Cc3ccccc3)[C@H]21 (mixture of isomers)	11.7% (inactive)
Cc1ccc(NC(=O)[C@H](C)NC(=O)C2CCN(C(=O)[C@@H](N)C(C)C)CC2)cc1	-1.97% (inactive)

SMILES	activity change, negative = cytotoxicity
Cc1noc(C)c1NC(=O)Nc1ccc2c(c1)C(=O)N([C@@H](C)CO)C[C@H](C)[C@H](CN(C)CC1CCCCC1)O2	-11.6% (inactive)
COc1cccc(S(=O)(=O)N(C)C[C@H]2OCc3cnnn3CCCC(=O)N([C@H](C)CO)C[C@H]2C)c1	38.2% (inactive)
C[C@H](CO)N1C[C@H](C)[C@H](CN(C)C(=O)NC2CCCCC2)OCCCC[C@H](C)Oc2ccc(NS(=O)(=O)c3cn(C)cn3)cc2C1=O	3.14% (inactive)
Cc1ccc(S(=O)(=O)N(C)C[C@H]2Oc3c(cccc3N(C)C)C(=O)N([C@@H](C)CO)C[C@H]2C)cc1	-16.9% (inactive)
CNC[C@H]1OCCCC[C@H](C)Oc2ccc(NC(=O)Cc3ccccc3)cc2C(=O)N([C@H](C)CO)C[C@@H]1C	-17.1% (inactive)
CC(NC(=O)COc1ccc([N+](=O)[O-])cc1)c1ccccc1 (configuration not stated)	18.2% (inactive)
C[C@H]1CN([C@@H](C)CO)C(=O)Cc2cc(NS(=O)(=O)c3ccc(F)cc3)ccc2O[C@@H]1CN(C)S(=O)(=O)c1ccc(F)cc1	-11.2% (inactive)
O=C(COC(=O)CCC1CCCC1)Nc1nc2c(F)c(F)c(F)cc2s1	-8.53% (inactive)
COc1ccccc1C#Cc1ccc2c(c1)O[C@H](CN(C)C(C)=O)[C@H](C)CN([C@@H](C)CO)S2(=O)=O	-7.15% (inactive)
O=C(C[C@@H]1CC[C@@H]2[C@H](COC[C@H](O)CN2Cc2cccc(C(F)(F)F)c2)O1)NCc1ccccc1	4.02% (inactive)
CC1=C(C(=O)OCc2ccccc2)C(c2ccccc2)NC(=O)N1 (configuration not stated)	13.2% (inactive)
CO[C@H]1CN(C)C(=O)c2cc(NC(=O)C3CC3)ccc2OC[C@@H](C)N(Cc2cncnc2)C[C@H]1C	-23.3% (inactive)
O=C(NC(=S)Nc1ccccc1N1CCOCC1)c1ccc(Br)cc1	-8.37% (inactive)
C[C@@H]1CN([C@H](C)CO)C(=O)c2cc(NS(=O)(=O)c3ccc(Cl)cc3)ccc2O[C@H]1CN(C)S(=O)(=O)c1ccc(F)cc1	38.8% (inactive)
CC(C)(C)SCCNC(=O)CN(c1ccccc1)S(=O)(=O)c1ccc(F)cc1	-6.34% (inactive)
CCCNC(=O)N1C[C@H](O)COC[C@H]2O[C@H](CC(=O)N3CCN(C)CC3)CC[C@@H]21	-14.1% (inactive)
O=C(C[C@@H]1CC[C@@H]2[C@H](COC[C@H](O)CN2Cc2cccc(C(F)(F)F)c2)O1)NCc1ccc(Cl)cc1	9.32% (inactive)
C[C@H](CO)N1C[C@H](C)[C@H](CN(C)C(=O)Nc2cccc(F)c2)Oc2ncc(C#CCN(C)C)cc2C1=O	-20.2% (inactive)
CCNC(=O)C[C@H]1CC[C@@H](NC(=O)NC2CCCCC2)[C@H](CO)O1	-2.42% (inactive)

Same assay, conditions: HEK293T viability, ATP luminescence (CellTiter-Glo), 48 h; at 28.5 µM (top of the series)

SMILES	activity change, negative = cytotoxicity
Cc1ccc(N(CC(N)=O)S(=O)(=O)c2ccc(F)cc2)cc1	-28% (inactive)

Same assay, conditions: HEK293T viability, ATP luminescence (CellTiter-Glo), 48 h; at 42 µM (top of the series)

SMILES	activity change, negative = cytotoxicity
Cc1ccc(NC(=O)C2(C)CCN2C(=O)CC2CC2)cc1C (configuration not stated)	22.8% (inactive)

Same assay, conditions: HEK293T viability, ATP luminescence (CellTiter-Glo), 48 h; at 46 µM (top of the series)

SMILES	activity change, negative = cytotoxicity
CCCC(=O)N1CCC1(C)C(=O)Nc1ccc(C)cc1 (configuration not stated)	-12.7% (inactive)
